Legend:
[1] = system: liver; settings: mice, cited from earlier work
[2] = system: B6 splenocytes; assay: In vitro stimulation of splenocytes: [3H] thymidine incorporation (proliferation); format: cell-based, mouse; settings: 72-h cultures, graded amounts
Description: (§1) Splenocytes were prepared as described above and plated at 2.0×10^5 cells per well in 96-well plates in RPMI-1640 supplemented with 5% FCS, […] 2-mercaptoethanol, 2 mM glutamine, 1% sodium pyruvate, and antibiotics. Titrated volumes of GC, α-GalCer, and ALIB-97 diluted in DMSO were added at final concentrations of 100 ng, 1 μg, and 10 μg/ml. After 72 h of culture, 1 μCi of [^3H] thymidine (Amersham Biosciences) was added to each well, and the cells were cultured for an additional 16 to 18 h. Cells were harvested with a cell harvester (Tomtec, Orange, Conn.), and the uptake of radioactivity was measured with a β-plate reader. To evaluate IFN-γ secretion in vitro, supernatants were harvested after 90 h of culture with glycolipids and stored until the cytokine levels were measured by ELISA.

[3] = humans, preliminary data; cited from earlier work
[4] = system: JNK2; assay: Western blot of liver extracts of ob/ob mice: JNK2 activation; format: in vivo; settings: per os daily 4 weeks, 45 μg (group C)
Description: (§2) For analysis of whole tissue lysates, snap-frozen liver pieces were homogenized in 0.75 ml of ice-cold PBS and centrifuged at 4° C. for 5 min in 2000 rpm. Pellets were lysed with 50 mM beta glycerophosphate, 1.5 mM EGTA, PH 7.3, 1 mM EDTA, PH 7.3, 1 mM DTT, 0.1 mM Sodium vanadate, 1% NP-40, and cocktails of protease and phosphatase (Sigma, Rehovot, Israel).
(§3) Lysates were centrifuged twice at 4° C. for 10 minutes in 14000 rpm. Equivalent amounts of lysates (15 μg/lane), determined by Bradford assay (Bio-Rad, Rehovot, Israel), were separated by sodium dodecyl sulfate polyacrylamide gel electrophoresis (SDS-PAGE) and transferred to nitrocellulose membranes.
(§4) For metabolic syndrome experiments, proteins were detected with JNK-2, Phospho JNK (Thr183/Tyr185), Akt and phospho Akt (Ser 473) antibodies (Cell Signaling Technologies, MA). β-actin (abcam, UK) was used as the loading control.
(§5) Blots were developed with horseradish peroxidase-conjugated secondary antibodies (Jackson Laboratories Bar Harbor, Me.) and Western Blot-Luminol Reagent (Santa Cruz Biotechnology, CA, USA). Cell counting and western Blot quantification was performed using total Lab (Phoretix, USA) software.
(§6) Therefore, five groups of male C57BL/6 Ob/Ob mice were studied. […]

[5] = system: fat-associated T cells; assay: Flow cytometry of T cell subsets in adipose tissue, stromal vascular cells and spleen of ob/ob mice; format: in vivo; settings: 15 and 45 μg per os daily 4 weeks
Description: Splenocytes and intrahepatic lymphocytes were isolated as follows: livers and spleens were kept in RPMI-1640+FCS. Then spleens were crushed through a 70 μm nylon cell strainer (Falcon) and centrifuged (1250 rpm for 7 min) for the removal of cell debris. Red blood cells were lysed with 1 ml of cold 155 mM ammonium chloride lysis buffer and centrifuged (1250 rpm for 3 min). Splenocytes were resuspended with 1 ml RPMI+FCS. Cell viability by trypan blue staining was above 90%. For intrahepatic lymphocytes, livers were crushed through a stainless mesh (size 60, Sigma) and the cell suspension was placed in a 50-ml tube for 5 min. Lymphoprep (10 ml, Ficoll, Axis-Shield PoC AS, Oslo, Norway) was placed under similar volume of cell suspension in 50-ml tubes. Tubes were centrifuged at 1800 rpm for 18 min. Cells in the interface were collected and centrifuged at 1800 rpm for 10 min, to obtain a pellet of cells depleted of hepatocytes to a final volume of 250 μl. Approximately 1×10^6 cells/mouse liver, were recovered.
Adipose tissue (visceral fat pads) was minced and incubated in Krebs-Ringer bicarbonate buffer (3 mL/g adipose tissue) containing 10mM glucose and 2.5% bovine serum albumin, incubated with 840 U/g collagenase type I (Sigma, Rehovot, Israel)) at 37° C. for 1 hour. Cells were filtered twice through chiffon mesh (100 μm) and centrifuged 50 g for 5 min. Floating adipocytes were separated from pelleted S/V fraction. The infranatant fraction was removed and centrifuged at 200 g for five minutes to pellet the S/V cells.
For metabolic syndrome experiments, the following antibodies were used for flow cytometry: anti-CD4-Pacific Blue, anti-CD8-FITC, anti-IL-17-PE, anti CD25-PercP-Cy5.5 and anti FOX3p PE-Cy725 (all from eBioscience, San Diego, Calif.). Surface staining was performed by incubating cells with antibodies and anti-CD16/32 (blocks Fc, eBioscience) at 4° C. in FACS buffer containing PBS and 0.5% BSA, for 30 min. Cells were washed twice with FACS buffer, resuspended in FACS buffer, and analyzed by flow cytometry. Appropriate isotype controls were used in all experiments. Intracellular staining was performed using Foxp3 staining buffer kit (eBioscience, San Diego, Calif.). Cells were incubated with 1 ml Fixation/Permeabilization solution for 50 min, washed twice with Permeabilization buffer and incubated with anti-Foxp3 Ab for 50 min. Cells were then washed twice with Permeabilization buffer and resuspended with FACS buffer. Analysis was performed using a FACSCalibur instrument (Becton Dickinson, San Jose, Calif.) with FCS express V.3 software (DeNovo software, Los Angeles, Calif.).
(§7) Therefore, five groups of male C57BL/6 Ob/Ob mice were studied. Mice (6 per group) were fed (per os) daily for 4 weeks with 15 or 45 μg of GC (groups B and C, respectively) and 15 or 45 μg of ALIB-97 (groups D and E, respectively). Control mice (Group A) were administered vehicle only.

[6] = system: ob/ob mice; assay: Serum ALT and AST (hepatic injury) in ob/ob mice; format: in vivo; settings: day 30, 45 μg per os daily, vehicle group A 710
Description: The effect of β-glycolipids on liver injury was evaluated by serum aspartyl transaminase (AST) and alanine aminotransferase (ALT) activities, which were determined by a clinical chemistry analyzer, Reflovet Plus (Roche Diagnostics, GmbH, Mannheim, Germany).
as §7

[7] = system: mouse splenocytes; assay: In vitro stimulation of splenocytes: supernatant IFN-γ by ELISA; format: cell-based; settings: CD1d−/− splenocytes
Description: as §1

[8] = system: AKT; assay: Western blot of liver extracts of ob/ob mice: AKT activation; format: in vivo; settings: per os daily 4 weeks, 45 μg (group C)
Description: as §2, §3, §4, §5, §6

[9] = system: ob/ob mice; assay: Fasting glucose and glucose tolerance test in ob/ob mice; format: in vivo
Description: Mice underwent a glucose tolerance test (GTT) on day 30 after overnight fasting. Glucose was administered orally (1.25 g per kg). Serum glucose measurements were performed on tail-vein blood every 15 min for 3 h. Glucose levels were measured by a standard glucometer.
as §7

Molecule | hepatotoxicity [1] | cell proliferation ([3H] thymidine incorporation) [2] | safety and biological activity [3] | activation of JNK2 [4] | liver injury ([1]; oral administration) | CD4+IL17+ / CD4+CD25+ ratio in adipose tissue [5] | CD4IL17/CD4CD25FOXP3 ratio in the SVC [5] | CD4IL17/CD4CD25FOXP3 ratio in the spleen [5] | CD4IL17/CD4CD25 ratio in the spleen [5] | ratio between CD4+IL17+ and CD4+CD25+FOXP3+ cells in adipose tissue [5] | serum AST [6] | IFN-γ secretion [7] | increase of AKT activation [8] | time at which the decrease in glucose levels (GTT, relative to time 0) reached statistical significance ([9]; day 30, 15 μg per os daily) | time at which the decrease in glucose levels (GTT, relative to time 0) reached statistical significance ([9]; day 30, 45 μg per os daily)
CCCCCCCCCCCCCCCCCCCCCCCCCC(=O)N[C@@H](CO[C@H]1O[C@H](CO)[C@H](O)[C@H](O)[C@H]1O)[C@H](O)[C@H](O)CCCCCCCCCCCCCC [αGalCer, α-Galctosyl-ceramide] | hepatotoxic | induced | – | – | – | – | – | – | – | – | – | – | – | – | –
β-glucosylceramide [GC, reference compound] | – | – | safe and biologically active | 60% | not associated with liver injury | reversal | reduction | reduction | reduction | dose dependent shift towards tolerance | 330 u/L | capable of activating | 43% | 120 min | 120 min
